Assay results taken from BindingDB's records for doi:10.1021/acs.jmedchem.9b01509 (University of Chemistry and Technology Prague, 2020).

Target: Sarcoplasmic/endoplasmic reticulum calcium ATPase 1 (Oryctolagus cuniculus, UniProt P04191)
Experiment: Inhibition of rabbit SERCA1a preincubated for 10 mins followed by addition of ATP and measured after 10 mins by colorimetric method

Sequence of Sarcoplasmic/endoplasmic reticulum calcium ATPase 1 (P04191 whole entry): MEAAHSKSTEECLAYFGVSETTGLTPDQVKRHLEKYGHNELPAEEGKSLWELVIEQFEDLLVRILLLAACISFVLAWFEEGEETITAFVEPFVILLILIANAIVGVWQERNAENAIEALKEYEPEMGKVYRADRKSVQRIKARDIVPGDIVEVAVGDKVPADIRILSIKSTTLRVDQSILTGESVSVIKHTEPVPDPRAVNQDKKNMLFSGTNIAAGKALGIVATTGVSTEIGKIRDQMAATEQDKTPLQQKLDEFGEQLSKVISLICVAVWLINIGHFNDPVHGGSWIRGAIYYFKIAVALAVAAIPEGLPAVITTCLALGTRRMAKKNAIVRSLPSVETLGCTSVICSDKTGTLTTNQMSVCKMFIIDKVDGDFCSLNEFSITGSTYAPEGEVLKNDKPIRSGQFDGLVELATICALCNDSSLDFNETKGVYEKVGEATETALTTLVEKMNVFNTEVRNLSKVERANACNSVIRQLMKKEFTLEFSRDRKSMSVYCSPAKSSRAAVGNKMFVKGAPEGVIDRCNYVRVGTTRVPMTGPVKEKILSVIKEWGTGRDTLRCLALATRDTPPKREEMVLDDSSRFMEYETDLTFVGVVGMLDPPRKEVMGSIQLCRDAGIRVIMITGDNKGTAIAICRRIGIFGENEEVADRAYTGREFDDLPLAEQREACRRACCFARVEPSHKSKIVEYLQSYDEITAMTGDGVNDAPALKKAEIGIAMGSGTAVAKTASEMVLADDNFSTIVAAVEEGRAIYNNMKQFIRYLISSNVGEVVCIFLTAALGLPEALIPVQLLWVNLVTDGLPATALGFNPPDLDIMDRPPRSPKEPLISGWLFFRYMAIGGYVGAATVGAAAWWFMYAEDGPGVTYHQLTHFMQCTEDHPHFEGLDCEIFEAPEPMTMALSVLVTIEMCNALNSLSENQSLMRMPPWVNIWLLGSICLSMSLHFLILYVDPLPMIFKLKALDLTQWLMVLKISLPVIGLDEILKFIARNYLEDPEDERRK

IC50: 15 µM
Compound: CC[C@H](C)[C@H]1O[C@]2(CC[C@@H]1C)C[C@@H]1C[C@@H](C/C=C(\C)[C@@H](O[C@H]3C[C@H](OC)[C@@H](O[C@H]4C[C@H](OC)[C@@H](O)[C@H](C)O4)[C@H](C)O3)[C@@H](C)/C=C/C=C3\CO[C@@H]4[C@H](O)C(C)=C[C@@H](C(=O)O1)[C@]34O)O2 [ABAMECTIN]
